From PMC6030209, “Structure-Activity Investigations and Optimisations of Non-metabolite Agonists for the Succinate Receptor 1” (Scientific Reports, 2018)
Like-named read-outs stand apart in the source and are kept apart here.

How the values were obtained:
[1] = format: in vitro ADME, mouse; conditions: 1 hour, 1 μM, 0.5 mg/mL microsomes
Method: Microsomal stability was studied in mouse liver microsomes (0.5 mg/mL) at a final test compound concentration of 1 μM and performed in triplicates in accordance to the published protocol. In short: Prewarmed (37 °C) 0.1 M PBS7.4, 10 mM NADPH in PBS7.4 and test compound (1 mM in DMSO) were added to an Eppendorf® Tube. The samples were incubated for 5 min at 37 °C before addition of newly thawned microsomes. The samples were mixed by gentle vortexing and incubated for 1 h at 37 °C, 300 rpm in an Eppendorf® Thermomixer. Samples were quenched by addition of ice-cold MeOH/MeCN (1:1) and centrifuged for 5 min at 10,000 g. The supernatant was transferred to HPLC vials and stored in the freezer until analysis by HPLC/UPLC. The metabolic stability was calculated based on a 0 min sample. All compounds were analysed in triplicates.

[2] = format: physicochemical; conditions: after 70 hours in 10 mM PBS7.4, 37 °C
Method: Triplicates of a 50 μM solution of the test compounds were prepared from 0.01 M PBS7.4 and a 10 mM stock solution in DMSO. The samples were incubated in an Eppendorf® Thermomixer (37 °C, 650 rpm). The samples were briefly vortexed and 50 μL aliquots were withdrawn at the time points 0 h, 24 h, 48 h etc. and analysed immediately on UPLC. The chemical stability in PBS7.4 was determined at every time point in percentage relative to the 0 h time point.

[3] = format: in vitro ADME; conditions: 2 hours, 37 °C
Method: FaSSIF, FeSSGF and FaSSGF were prepared in accordance to the manufacturers procedure, Biorelevant.com. Triplicates of a 50 μM solution of the test compounds were prepared from a 10 mM stock solution in DMSO diluted with FaSSGF/FaSSIF/FeSSIF. The samples were incubated in an Eppendorf® Thermomixer (37 °C, 650 rpm). Samples were withdrawn at 0 min and 120 min, centrifuged (10 min at 10,000 rpm) and the supernatant analysed by HPLC/UPLC. The stability was calculated based on peak area of a 0 point sample.

SUCNR1 = test: Active/inactive grouping by EC50 threshold (ALiBERO training set, Table S1); format: cell-based; conditions: active (1) / inactive (0), EC50 threshold of 10 µM
From the text: In brief, starting from the homology model supported by mutagenesis data[4], ALiBERO introduced receptor flexibility via Normal Mode Analysis and Monte Carlo sampling, to generate a small subset of receptor models (pockets). […] For a list of all compounds used in the optimisation protocol, see Table S1. Receptor structures were then chosen based on their ability to discriminate actives from inactives in a retrospective virtual screening using the docking protocol and scoring function in ICM (Molsoft L.L.C., San Diego, CA, USA)[20], as measured by the normalised square root area under the curve (NSQ_AUC). […] The ALiBERO-optimised receptor ensemble was subsequently validated in a virtual ligand screening using an external test set with a higher active:decoy ratio (~1:50).
ALiBERO is an iterative sampling-selection protocol for receptor optimisation that relies on the use of ligand information for selecting the best-performing receptor conformations. Homology models of the mouse SUCNR1 receptor were constructed according to Trauelsen et al.[4] and loaded into ICM (Molsoft L.L.C., San Diego, CA, USA). The structure was converted into an ICM object, thereby assigning protein atom types, optimising hydrogens and His, Pro, Asn, […] and Cys side-chain conformations. […] For a list of all compounds used in the optimisation protocol, see Table S1. ALiBERO was performed using the prepared receptor structure and ligand training set as input. Binding site residues were manually selected based on proximity to the position of MRS2500 in the superimposed structure of the P2Y1 receptor (PDB 4XNW). 100 elastic network normal mode analysis derived conformers were built in order to recreate backbone and side-chain flexibility (T = 300 K). Next, a flexible-ligand static-receptor small-scale virtual screening was performed on each of the receptor conformers, from which several pockets were selected for the following generation. The ligand and decoy molecules were docked into mSUCNR1, represented as pre-calculated potential grids and then sorted according to their ICM VLS scores. The maximum number of complementary pockets for each generation was set to 5 with a maximum of 10 generations. Receptor models were selected based on their combined screening performance, as determined by the normalised square root area under the curve, NSQ_AUC. After each round of virtual screening, an all-atom Monte Carlo side-chain refinement was performed to account for induced-by-ligand changes. NSQ_AUC values were calculated according to Katritch et al.[16].

mSUCNR1 = molecular target: T1, mSUCNR1 (Mus musculus, UniProt Q99MT6); test: IP3 turnover assay in mSUCNR1 transfected HEK-293 cells; format: cell-based; conditions: for mSUCNR1 efficacy, %: efficacy relative to succinate (100%), HEK cells (N = 3)
T1 construct: FLAG (own knowledge: pCMV-Tag 2B is an N-terminal FLAG vector); host or cells: HEK-293, transient transfection with Lipofectamine-2000
T1 sequence (Q99MT6 1-317): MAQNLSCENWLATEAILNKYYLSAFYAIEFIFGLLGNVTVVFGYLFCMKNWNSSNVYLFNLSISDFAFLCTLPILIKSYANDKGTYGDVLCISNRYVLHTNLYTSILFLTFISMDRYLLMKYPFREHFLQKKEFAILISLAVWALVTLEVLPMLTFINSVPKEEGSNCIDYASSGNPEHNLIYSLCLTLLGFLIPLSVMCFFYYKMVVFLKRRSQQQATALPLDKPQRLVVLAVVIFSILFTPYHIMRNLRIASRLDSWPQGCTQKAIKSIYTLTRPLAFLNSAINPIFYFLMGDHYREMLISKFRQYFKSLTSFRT
Method: (§1) Receptor constructs for mSUCNR1 and hSUCNR1 were bought from Origene and cloned into the eukaryotic expression vector pCMV-Tag(2B) (Stratagene).
(§2) Transient transfection of the HEK-293 cells was done with Lipofectamine-2000 according to manufacturer’s protocol. Cells were supplemented with fresh medium after 5 h.
(§3) 96-well plates were coated with poly-D-lysine and HEK-293 cells were plated (35.000 cells/well). Cells were transfected for 5 h the following day and subsequently incubated O/N with 0.5 μCi/mL myo[3H]inositol (Perkin Elmer) in 100 μL growth medium. On day 3 cells were washed with 200 µL HBSS/well (Gibco, Life Technologies) followed by a pre-incubation (30 min, 37 °C) with 100 µL HBSS supplemented with 10 mM LiCl. Cells were stimulated with ligand (120 min, 37 °C) and lysed with 50 µL 10 mM formic acid (30 min on ice). In a white 96 well plate 20 µL cell extracts and 80 µL 1:8 diluted YSi scintillation beads (Perkin Elmer) were mixed. The plate was spun down, and a Packard Top Count NXT counter recorded light emission (scintillation) after an 8 h delay.

physchem = format: physicochemical; conditions: pH 7.4, aqueous buffer, kinetic from dmso stock, 10 mM PBS7.4, 25 °C
Method: Duplicates of a 200 μM solution of the dicarboxylic acids were prepared from 0.01 M PBS7.4 and a 10 mM stock solution in DMSO. The samples were incubated in an Eppendorf® Thermomixer (25 °C, 800 rpm) for 24 h. Afterwards, the samples were centrifuged for 5 min at 11,000 rpm and the supernatant was filtered (0.45 μm PTFE membrane) before analysis by HPLC. The solubility was calculated based on a concentration-absorption curve.

hSUCNR1 = molecular target: T2, hSUCNR1 (Homo sapiens, UniProt Q9BXA5); test: IP3 turnover assay in hSUCNR1 transfected HEK-293 cells; format: cell-based; conditions: for hSUCNR1 efficacy, %: efficacy relative to succinate (100%), HEK cells (N = 3)
T2 construct: FLAG (own knowledge: pCMV-Tag 2B is an N-terminal FLAG vector); host or cells: HEK-293, transient transfection with Lipofectamine-2000
T2 sequence (Q9BXA5 1-334): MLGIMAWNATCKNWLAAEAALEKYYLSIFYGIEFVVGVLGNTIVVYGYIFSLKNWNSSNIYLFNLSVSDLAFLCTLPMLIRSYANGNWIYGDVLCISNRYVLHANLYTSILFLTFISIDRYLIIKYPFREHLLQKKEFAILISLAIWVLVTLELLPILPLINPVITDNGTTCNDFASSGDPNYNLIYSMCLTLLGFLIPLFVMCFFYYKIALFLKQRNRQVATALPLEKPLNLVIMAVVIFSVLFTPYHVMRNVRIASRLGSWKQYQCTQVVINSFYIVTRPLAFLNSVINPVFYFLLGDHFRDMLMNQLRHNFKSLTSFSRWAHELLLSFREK
Method: as §1, §2, §3

[4] = dose-response curves of induction of IP3 turnover in SUCNR1 transfected HEK cells (N = 3), read-out: hSUCNR1 pEC50 (converted)
[5] = dose-response curves of induction of IP3 turnover in SUCNR1 transfected HEK cells (N = 3), read-out: mSUCNR1 pEC50 (converted)
[6] = @10^−4M, IP3 turnover, relative to succinate (100%)

| Structure (SMILES) | Active (SUCNR1) | EC50 (mSUCNR1) [nM] | mSUCNR1 efficacy, % (mSUCNR1; IP3 turnover) [%] | EC50 (hSUCNR1) [nM] | hSUCNR1 efficacy, % (hSUCNR1; IP3 turnover) [%] | EC50 (hSUCNR1; [4]) [nM] | EC50 (mSUCNR1; [5]) [nM] | also measured |
| --- | --- | --- | --- | --- | --- | --- | --- | --- |
| CCOc1ccc(-c2ccc(C(=O)N[C@@H](CC(=O)O)C(=O)O)o2)cc1 [Compound 21, (5-(4-Ethoxyphenyl)furan-2-carbonyl)-L-aspartic acid] | 1 (active (1)) | 36.3 | 70.2 ± 2.0 |  |  |  |  | stability in mouse liver microsomes [1]: stable; chemical stability [2]: > 98%; stability in FaSSGF ([3]; simulated gastrointestinal fluid FaSSGF): stable; stability in FaSSIF ([3]; simulated gastrointestinal fluid FaSSIF): stable; stability in FeSSIF ([3]; simulated gastrointestinal fluid FeSSIF): stable; solubility kinetic at 24 h (physchem): > 200 µM |
| CC(C)Oc1ccc(-c2ccc(C(=O)N[C@@H](CC(=O)O)C(=O)O)o2)cc1 [Compound 22, (5-(4-Isopropoxyphenyl)furan-2-carbonyl)-L-aspartic acid] | 1 (active (1)) | 51.3 | 75.6 ± 1.7 | 145 | 69.6 ± 4.3 |  |  |  |
| CC1(COc2ccc(-c3ccc(C(=O)N[C@@H](CC(=O)O)C(=O)O)o3)cc2)COC1 [Compound 23, (5-(4-((3-Methyloxetan-3-yl)methoxy)phenyl)furan-2-carbonyl)-L-aspartic acid] | 1 (active (1)) | 107 | 82.4 ± 1.9 | 537 | 76.5 ± 3.1 |  |  | reduction of potency (mSUCNR1; relative to the 4-methoxy compound 17, orthologue not stated): > 2 fold |
| CS(=O)(=O)CCCOc1ccc(-c2ccc(C(=O)N[C@@H](CC(=O)O)C(=O)O)o2)cc1 [Compound 24, (5-(4-(3-(Methylsulfonyl)propoxy)phenyl)furan-2-carbonyl)-L-aspartic acid] | 1 (active (1)) | 46.8 | 74.6 ± 2.1 | 794 | 63.9 ± 2.4 |  |  |  |
| O=C(O)C[C@H](NC(=O)c1cccc(-c2ccc(F)cc2)c1)C(=O)O [Compound 25, (4′-Fluoro-[1,1′-biphenyl]-3-carbonyl)-L-aspartic acid] | 1 (active (1)) |  | 58.0 ± 4.5 |  | 49.7 ± 3.9 | 1230 | 3980 | decrease in potency on the mouse orthologue (mSUCNR1; relative to 3): 10 fold |
| O=C(O)C[C@H](NC(=O)c1ccc(-c2ccc(F)cc2)cc1)C(=O)O [Compound 26, (4′-Fluoro-[1,1′-biphenyl]-4-carbonyl)-L-aspartic acid] | 0 (inactive (0)) |  |  |  |  |  |  | hSUCNR1 % @10^−4M (hSUCNR1; [6]): 4% @10^−4M; mSUCNR1 % @10^−4M (mSUCNR1; [6]): 7% @10^−4M |
| O=C(O)C[C@H](NC(=O)c1cccc(-c2ccc(F)cc2)n1)C(=O)O [Compound 27, (6-(4-Fluorophenyl)picolinoyl)-L-aspartic acid] | 1 (active (1)) |  | 89.3 ± 6.1 |  | 78.2 ± 8.0 | 933 | 794 |  |
| COc1ccc(-c2cccc(C(=O)N[C@@H](CC(=O)O)C(=O)O)c2)cc1 [Compound 28, (4′-Methoxy-[1,1′-biphenyl]-3-carbonyl)-L-aspartic acid] | 1 (active (1)) |  | 64.0 ± 2.5 |  | 58.0 ± 2.7 | 162 | 1200 |  |
| COc1ccc(-c2cccc(C(=O)N[C@@H](CC(=O)O)C(=O)O)n2)cc1 [Compound 29, (6-(4-Methoxyphenyl)picolinoyl)-L-aspartic acid] | 1 (active (1)) |  | 71.2 ± 3.2 |  | 52.6 ± 3.9 | 141 | 182 |  |
| O=C(O)C[C@H](NC(=O)c1cccc(-c2ccc(OC(F)(F)F)cc2)c1)C(=O)O [Compound 30, (4′-(Trifluoromethoxy)-[1,1′-biphenyl]-3-carbonyl)-L-aspartic acid] | 1 (active (1)) |  | 45.3 ± 3.4 |  | 49.2 ± 2.7 | 58.9 | 1450 |  |
